Holding throughout (experiment): relative viability (nuclei count vs DMSO), 5 days (fraction); higher = more cells survive
Compound in the assay “Tosedostat + Vorinostat”: CC(C)C[C@@H](C(=O)N[C@H](C(=O)OC1CCCC1)c1ccccc1)[C@H](O)C(=O)NO [Tosedostat] + O=C(CCCCCCC(=O)Nc1ccccc1)NO [Vorinostat] (partner 1 µM)
In outline:
(§1)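 Relative viability is defined as nuclei in treated wells over nuclei in vehicle wells. Duplicate plates were run and medians reported. Lung cancer cell lines in 1536-well plates were dosed by pin tool one day after seeding, with one drug or with a fixed anchor-drug dose plus five library-drug doses (not always all listed) in √10 steps, and nuclei were counted after 5 days.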

Compound in assay [1]: CC1=NN=C(O1)C2=NN=C(C=C2)N3CCC(CC3)OC4=C(C=CC(=C4)F)Cl + Nc1ncn([C@H]2C[C@H](O)[C@@H](CO)O2)c(=O)n1 [Decitabine] (partner 2 µM)
The essentials: as §1

Compound in assay [2]: CC1=NN=C(O1)C2=NN=C(C=C2)N3CCC(CC3)OC4=C(C=CC(=C4)F)Cl + O=C(CCCCCCC(=O)Nc1ccccc1)NO [Vorinostat] (partner 1 µM)
In outline: as §1

Compound in assay [3]: CC1=NN=C(O1)C2=NN=C(C=C2)N3CCC(CC3)OC4=C(C=CC(=C4)F)Cl + Cc1nc(Nc2ncc(C(=O)Nc3c(C)cccc3Cl)s2)cc(N2CCN(CCO)CC2)n1 [Dasatinib] (partner 0.075 µM)
The essentials:
as §1

In the supplement of paper PMC10307832 one finds relative viability data, which are given here for three cell lines.

For the cell line NCI-H1395, the relative viability with Tosedostat + Vorinostat (first compound 0.02 µM) came out at 0.773; with Tosedostat + Vorinostat (first compound 0.06325 µM), 0.77; in the assay with Tosedostat + Vorinostat (first compound 0.2 µM), 0.743; with Tosedostat + Vorinostat (first compound 0.6325 µM), 0.742; in the assay with Tosedostat + Vorinostat (first compound 2 µM), 0.595; in assay [1] (first compound 0.253 µM), 0.689. The relative viability is 0.762 in assay [1] (first compound 0.8 µM); 0.757 in assay [1] (first compound 2.53 µM); 0.714 in assay [1] (first compound 8 µM); 0.656 in assay [2] (first compound 0.253 µM); 0.563 in assay [2] (first compound 0.8 µM); 0.671 in assay [2] (first compound 2.53 µM). Also, the relative viability in assay [2] (first compound 8 µM) turned out to be 0.593; in assay [3] (first compound 0.253 µM), 0.448; in assay [3] (first compound 0.8 µM) it was 0.405; in assay [3] (first compound 2.53 µM), 0.401; in assay [3] (first compound 8 µM), 0.427.
Take NCI-H358: the relative viability was 0.669 with Tosedostat + Vorinostat (first compound 0.02 µM); 0.562 in the assay with Tosedostat + Vorinostat (first compound 0.06325 µM); 0.478 in the assay with Tosedostat + Vorinostat (first compound 0.2 µM); 0.313 with Tosedostat + Vorinostat (first compound 0.6325 µM); 0.264 in the assay with Tosedostat + Vorinostat (first compound 2 µM); 0.19 in assay [1] (first compound 0.253 µM). The relative viability in assay [1] (first compound 0.8 µM) was 0.212; in assay [1] (first compound 2.53 µM) it was 0.197; in assay [1] (first compound 8 µM), 0.181; in assay [2] (first compound 0.253 µM), 0.405; in assay [2] (first compound 0.8 µM) it was 0.341; in assay [2] (first compound 2.53 µM), 0.399. The relative viability in assay [2] (first compound 8 µM) came to 0.35; in assay [3] (first compound 0.253 µM), 0.199; in assay [3] (first compound 0.8 µM) it was 0.196; in assay [3] (first compound 2.53 µM) it was 0.19; in assay [3] (first compound 8 µM), 0.188.
With SW 1573, the relative viability with Tosedostat + Vorinostat (first compound 0.02 µM) stood at 0.984; in the assay with Tosedostat + Vorinostat (first compound 0.06325 µM) it was 0.718; in the assay with Tosedostat + Vorinostat (first compound 0.2 µM), 0.81; with Tosedostat + Vorinostat (first compound 0.6325 µM), 0.671; in the assay with Tosedostat + Vorinostat (first compound 2 µM) it was 0.614; in assay [1] (first compound 0.253 µM), 0.517. Also, the relative viability was determined as 0.471 in assay [1] (first compound 0.8 µM); 0.482 in assay [1] (first compound 2.53 µM); 0.378 in assay [1] (first compound 8 µM); 0.717 in assay [2] (first compound 0.253 µM); 0.421 in assay [2] (first compound 0.8 µM); 0.434 in assay [2] (first compound 2.53 µM). The relative viability was 0.251 in assay [2] (first compound 8 µM); 0.452 in assay [3] (first compound 0.253 µM); 0.535 in assay [3] (first compound 0.8 µM); 0.459 in assay [3] (first compound 2.53 µM); 0.315 in assay [3] (first compound 8 µM).
